System: panel of Gram-positive organisms (Staphylococcus aureus, Streptococcus pneumoniae, Streptococcus pyogenes, Enterococcus faecalis, Enterococcus faecium) and …
Assay type: cell-based, Gram-positive and Gram-negative bacteria
Conditions: against all of the strains representing the organisms listed; serial two-fold dilutions 0.016 to 16 mcg/mL

For `COc1cnc2ccc(=O)n3c2c1[C@](O)(CN1CCC(NCc2cc4c(nn2)OCCO4)CC1)C3` [Example 66], the MIC values was > 16 µg/mL.

— patent US7732460B2 (priority 2005, dated 2010)
